Test results: patent US9393236B2, “Use of 4-cyclopropylmethoxy-N-(3,5-dichloro-1-oxido-4-pyridin-4-yl)-5-(methoxy)pyridine-2-carboxamide in the treatment of cranial traumas” (SANOFI, priority 2007, dated 2016)

Experiments:
ferret = assay: Evaluation of the emetic effects in the ferret; type: in vivo
Procedure: The emetic capacity of 4-cyclopropylmethoxy-N-(3,5-dichloro-1-oxidopyridin-4-yl)-5-(methoxy)pyridine-2-carboxamide was evaluated in the ferret. Two groups of ferrets were used, the first receiving the carrier (PEG200) and the second receiving 4-cyclopropyl methoxy-N-(3,5-dichloro-1-oxidopyridin-4-yl)-5-(methoxy)pyridine-2-carboxamide in solution in the carrier (PEG 200), by oral gavage. The animals were observed continually for the 2 hours following the administration, and then every hour up to 6 hours after the administration. The clinical signs (in particular retching and vomiting) were noted.
The emetic capacity of (R)-(−)-rolipram was evaluated in the ferrets. Two groups of ferrets were used, the first being given the carrier (PEG200) and the second being given the (((4R)-4-[3-(cyclopentyloxy)-4-methoxyphenyl]pyrrolidine-2-one)) in solution in the carrier (PEG 200), by oral gavage, at doses of 0.05 mg/kg and of 0.1 mg/kg. The animals were observed continually for the 2 hours following administration, and then once an hour up to 6 hours after the administration. The clinical signs were noted.

[1] = test system: rats with parietal cranial trauma; assay: CFR (Conditioned Freezing Response) test after a parietal cranial trauma; type: in vivo, rat (Sprague-Dawley); conditions: rat; 0.05 mg/kg i.v. 4 h after surgery (D0), then 0.1 mg/kg/day per os twice a day D1-D21; CFR measured D23/D24; p<0.001 vs traumatized animal given the carrier
Procedure: After general anaesthesia, rats (Sprague-Dawley, male, 150-200 g, Charles River) are placed in a stereotaxis frame. A craniotomy is performed at the level of the parietal cortex (AP: 3.5 mm; LAT: 7 mm and 3.5 mm below the cranial roof). A catheter connected to an HPLC pump is placed in contact with the dura mater and a pressure of 0.073 Kpsi is exerted.
The animals are treated intravenously 4 h after the surgery (D0) by administering a solution of 4-cyclopropylmethoxy-N-(3,5-dichloro-1-oxidopyridin-4-yl)-5-(methoxy)pyridine-2-carboxamide in the carrier (PEG200/physiological saline (NaCl 0.9%)), at the dose of 0.05 mg/kg.
Starting from D1 and up to D21 post-surgery, the animals are treated with a solution containing 4-cyclopropylmethoxy-N-(3,5-dichloro-1-oxidopyridin-4-yl)-5-(methoxy)pyridine-2-carboxamide in the carrier (methylcellulose (MC) (0.6%)+tween-80 (0.5%) in water) per os, twice a day, at the total daily dose of 0.1 mg/kg.
The deficiency in the CFR was measured at days D23 and D24 post-surgery.
At D23, the animal is placed in a box, where it receives an electric shock of 0.6 mA for 1.5 s.
At D24, the animal is again placed in the same box and the duration of immobility is measured for 3 minutes.

[2] = 0.1 mg/kg by oral gavage in PEG200, observed up to 6 hours

Row | Compound | emetic effects (retching and vomiting) (ferret; [2]) | inhibition of the deficiency (immobility time in CFR) induced by a cranial trauma [1] [%] | emetic effects (retching and vomiting) (ferret; 0.05 mg/kg by oral gavage in PEG200, observed up to 6 hours)
1 | COc1cnc(C(=O)Nc2c(Cl)c[n+]([O-])cc2Cl)cc1OCC1CC1 [4-Cyclopropylmethoxy-N-(3,5-dichloro-1-oxidopyridin-4-yl)-5-(methoxy)pyridine-2-carboxamide] | induces no retching or vomiting | 100 | 
2 | COc1ccc([C@@H]2CNC(=O)C2)cc1OC1CCCC1 [(R)-(−)-rolipram, (4R)-4-[3-(cyclopentyloxy)-4-methoxyphenyl]pyrrolidine-2-one] | induces vomiting |  | induces vomiting
